Columns and labels:
Assay in all cases: relative viability (nuclei count vs DMSO), 5 days (fraction); higher = more cells survive
[1] = compound: COc1cc2ncn(-c3cc(OCc4ccccc4C(F)(F)F)c(C(N)=O)s3)c2cc1OC + COc1cc2c(Oc3ccc(NC(=O)C4(C(=O)Nc5ccc(F)cc5)CC4)cc3F)ccnc2cc1OCCCN1CCOCC1 [Foretinib] (partner 0.25 µM)
In short: (§1)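 One day after seeding in 1536-well plates, lung cancer cell lines were dosed by pin tool. Dosing was either single-drug or a fixed anchor-drug dose plus five library-drug doses (not always all listed) in √10 steps. After 5 days, nuclei were stained in one fix-and-stain step and counted on 4× images, and relative viability is the nuclei count of treated wells over that of vehicle wells, given as the median of duplicate plates.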

[2] = compound: COc1cc2ncn(-c3cc(OCc4ccccc4C(F)(F)F)c(C(N)=O)s3)c2cc1OC + Nc1nc2[nH]cc(CCc3ccc(C(=O)N[C@@H](CCC(=O)O)C(=O)O)cc3)c2c(=O)[nH]1 [Pemetrexed] (partner 0.2 µM)
In short: as §1

[3] = compound: COc1cc2ncn(-c3cc(OCc4ccccc4C(F)(F)F)c(C(N)=O)s3)c2cc1OC + O=C(c1cc(Cc2n[nH]c(=O)c3ccccc23)ccc1F)N1CCN(C(=O)C2CC2)CC1 [Olaparib] (partner 8 µM)
In short: as §1

[4] = compound: COc1cc2ncn(-c3cc(OCc4ccccc4C(F)(F)F)c(C(N)=O)s3)c2cc1OC + Cc1nc(NC(=O)N2CCC[C@H]2C(N)=O)sc1-c1ccnc(C(C)(C)C(F)(F)F)c1 [Alpelisib] (partner 2 µM)
In short: as §1

Cell Line	relative viability ([1]; first compound 0.05 µM)	relative viability ([1]; first compound 0.1581 µM)	relative viability ([1]; first compound 0.5 µM)	relative viability ([1]; first compound 1.581 µM)	relative viability ([1]; first compound 5 µM)	relative viability ([2]; first compound 0.05 µM)	relative viability ([2]; first compound 0.1581 µM)	relative viability ([2]; first compound 0.5 µM)	relative viability ([2]; first compound 1.581 µM)	relative viability ([2]; first compound 5 µM)	relative viability ([3]; first compound 0.05 µM)	relative viability ([3]; first compound 0.1581 µM)	relative viability ([3]; first compound 0.5 µM)	relative viability ([3]; first compound 1.581 µM)	relative viability ([3]; first compound 5 µM)	relative viability ([4]; first compound 0.05 µM)	relative viability ([4]; first compound 0.1581 µM)	relative viability ([4]; first compound 0.5 µM)	relative viability ([4]; first compound 1.581 µM)	relative viability ([4]; first compound 5 µM)
NCI-H2087	1.16	1.21	0.261	0.117	0.128	0.617	0.684	0.414	0.11	0.106	0.432	0.493	0.346	0.098	0.0728	1.18	0.953	0.311	0.169	0.142
NCI-H2228	0.85	0.739	0.351	0.1	0.162	0.329	0.352	0.265	0.153	0.238	0.224	0.721	0.201	0.157	0.194	0.612	0.866	0.186	0.187	0.272
NCI-H838	1.17	1.09	0.832	0.455	0.139	0.216	0.278	0.221	0.143	0.114	0.491	0.679	0.365	0.0997	0.121	1.25	1.02	0.956	0.36	0.142
NCI-H661	0.908	0.866	0.854	0.322	0.27	0.989	0.819	0.482	0.303	0.269	0.68	0.681	0.349	0.332	0.274	0.855	0.367	0.499	0.26	0.224
NCI-H520	0.892	0.836	0.357	0.249	0.204	0.301	0.663	0.247	0.204	0.171	0.198	0.247	0.193	0.182	0.142	1.08	0.882	0.508	0.186	0.158
EBC-1	0.0982	0.102	0.0761	0.0874	0.0751	–	–	–	–	–	0.622	0.758	0.217	0.154	0.128	0.82	0.682	0.235	0.207	0.194
NCI-H727	0.929	0.941	0.639	0.309	0.476	–	–	–	–	–	0.676	0.672	0.68	0.489	0.535	0.545	0.695	0.41	0.282	0.247
NCI-H1299	1.1	1.07	0.664	0.255	0.257	–	–	–	–	–	0.962	0.921	0.431	0.223	0.19	1.04	0.979	0.788	0.326	0.654
LK-2	1.27	0.987	0.266	0.163	0.135	0.386	0.268	0.168	0.115	0.0951	0.681	0.345	0.215	0.16	0.0981	1.13	0.957	0.575	0.298	0.263
NCI-H1993	0.652	0.884	0.662	0.579	0.569	0.513	0.616	0.41	0.421	0.448	0.952	1.14	0.742	0.535	0.462	0.662	0.674	0.605	0.519	0.517
NCI-H1648	–	–	–	–	–	0.855	0.805	0.513	0.243	0.219	0.74	0.596	0.366	0.242	0.261	–	–	–	–	–
NCI-H1650	1.04	1.01	1.08	0.13	0.139	0.421	0.36	0.333	0.217	0.207	0.757	0.659	0.305	0.114	0.204	–	–	–	–	–
SW 900	0.857	0.818	0.7	0.41	0.169	0.453	0.544	0.408	0.254	0.187	0.778	0.892	0.601	0.201	0.171	–	–	–	–	–
IA-LM	1.16	0.987	0.328	0.0521	0.0505	–	–	–	–	–	0.75	0.602	0.123	0.0768	0.0783	0.701	0.493	0.107	0.0655	0.0465
NCI-H1563	0.839	0.897	1.28	0.767	0.567	0.833	0.654	0.707	0.71	0.365	–	–	–	–	–	0.953	1.02	0.917	0.745	0.599
HCC-44	–	–	–	–	–	0.633	0.625	0.685	0.338	0.342	1.06	1.04	0.877	0.39	0.372	0.908	0.76	0.503	0.13	0.0819
ABC-1	1.2	1.08	0.758	0.225	0.239	–	–	–	–	–	0.705	0.837	0.64	0.477	0.429	1.25	1.02	0.786	0.316	0.319
NCI-H522	–	–	–	–	–	0.965	0.842	0.742	0.812	0.377	0.51	0.714	0.621	0.517	0.337	–	–	–	–	–
NCI-H1792	–	–	–	–	–	0.683	0.688	0.0781	0.0502	0.0387	0.152	0.273	0.457	0.0375	0.0338	0.732	0.659	0.501	0.31	0.364
